Test results as given in patent US8524737B2, “Bi- and polycyclic substituted isoquinoline and isoquinolinone derivatives” (Sanofi, priority 2008, dated 2013).

Target: T1, human recombinant ROCK II (Homo sapiens, UniProt O75116)
T1 construct: recombinant human ROCK-II residues 11-552; His6 (N); purchased Millipore GmbH, Schwalbach, Germany
Test: Determination of Rho Kinase Inhibition (ROCK II, Caliper peptide phosphorylation assay)
Assay type: biochemical
Conditions: tested in the form (salt or free base) obtained in the examples
Description: Determination of Rho Kinase Inhibition To measure Rho-kinase inhibition, IC50 values were determined according to the following protocol: Active human recombinant ROCK II (N-terminal His6-tagged recombinant human ROCK-II residues 11-552) was purchased from Millipore GmbH, Schwalbach, Germany. The peptide substrate, Fluorescein-AKRRRLSSLRA-COOH, was obtained from JPT Peptide Technologies, Berlin, Germany. Adenosine-5′-triphosphate (ATP), bovine serum albumine (BSA), dimethylsulphoxide (DMSO), 4-(2-hydroxyethyl)piperazine-1-ethanesulfonic acid (Hepes), Brij-35, dithiothreitol (DTT) and Pluronic F-68 were purchased from Sigma-Aldrich, Munich, Germany. Tris(hydroxymethyl)-aminomethane (Tris), magnesium chloride, NaOH, 1M HCl and EDTA were obtained from Merck Biosciences, Darmstadt, Germany. “Complete” protease inhibitor was from Roche Diagnostics, Mannheim, Germany. Test compounds were diluted to the appropriate concentrations in buffer 1 (25 mM Tris-HCl, pH 7.4, 5 mM MgCl2, 2 mM DTT, 0.02% (w/v) BSA, 0.01% Pluronic F-68 and 3% DMSO). The ROCK II enzyme was diluted to a concentration of 100 ng/ml in buffer 2 (25 mM Tris-HCl, pH 7.4, 5 mM MgCl2, 2 mM DTT and 0.02% (w/v) BSA). The peptide substrate and ATP were diluted to concentrations of 3 μM and 120 μM, respectively, in the buffer 2. Two μl of the compound solution were mixed with 2 μl of the diluted enzyme in a 384-well small volume microtiter plate (Greiner, Bio-One, Frickenhausen, Germany), and the kinase reaction was initiated by addition of 2 μl of the solution containing peptide substrate and ATP. After 60 min incubation at 32° C., the reaction was stopped by addition of 20 μl of a solution containing 100 mM Hepes-NaOH, pH 7.4, 0.015% (v/v) Brij-35, 45 mM EDTA and 0.227% chip coating reagent 1 (Caliper Lifescience Inc, Hopkinton, Mass.). Phosphorylation of the substrate peptide was then detected on a Caliper 3000 instrument essentially as described by Pommereau et al (J. Biomol. Screening 2004, 9(5), 409-416). Separation conditions were as follows: Pressure −1.3 psi, upstream voltage −1562 V, downstream voltage −500 V, sample sip time 200 ms. Positive controls (buffer 1 instead of compound) and negative controls (buffer 1 instead of compound and buffer 2 instead of ROCK II) were run in parallel on each plate. The following products/compounds were tested in said assay by using the respective form (salt or free base) obtained as in the examples described above and the following activities were measured

T1 sequence (O75116 11-552): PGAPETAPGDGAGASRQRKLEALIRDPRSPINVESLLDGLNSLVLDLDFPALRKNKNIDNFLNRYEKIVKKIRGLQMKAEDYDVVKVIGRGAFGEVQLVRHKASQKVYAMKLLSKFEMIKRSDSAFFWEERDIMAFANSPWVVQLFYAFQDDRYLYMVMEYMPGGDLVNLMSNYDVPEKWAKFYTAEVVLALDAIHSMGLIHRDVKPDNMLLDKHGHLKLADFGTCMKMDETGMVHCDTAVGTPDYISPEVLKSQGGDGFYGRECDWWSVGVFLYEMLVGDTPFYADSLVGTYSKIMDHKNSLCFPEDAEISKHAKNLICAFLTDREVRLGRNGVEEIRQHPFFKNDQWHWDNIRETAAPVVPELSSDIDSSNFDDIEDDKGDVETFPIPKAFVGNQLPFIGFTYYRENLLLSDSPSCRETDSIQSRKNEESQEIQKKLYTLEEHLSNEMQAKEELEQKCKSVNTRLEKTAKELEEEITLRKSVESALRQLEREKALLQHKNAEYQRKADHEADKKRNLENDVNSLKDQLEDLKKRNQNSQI

IC50 [nM] | pIC50 | SMILES
10 to 100 | – | NC1C2CC3CC1CC(Oc1cc4cc[nH]c(=O)c4cc1Cl)(C3)C2 (single isomer, unassigned) [Example 1, 6-(4-Amino-adamantan-1-yloxy)-7-chloro-2H-isoquinolin-1-one]
10 to 100 | – | C=CCC1(N)C2CC3CC1CC(Oc1cc4cc[nH]c(=O)c4cc1Cl)(C3)C2 (single isomer, unassigned) [Example 3, 6-(4-Allyl-4-amino-adamantan-1-yloxy)-7-chloro-2H-isoquinolin-1-one]
100 to 1000 | – | C=CCC1(N)C2CC3CC1CC(Oc1cc4cc[nH]c(=O)c4cc1Cl)(C3)C2 (single isomer, unassigned) [Example 4, 6-(4-Allyl-4-amino-adamantan-1-yloxy)-7-chloro-2H-isoquinolin-1-one]
10 to 100 | – | CCCC1(N)C2CC3CC1CC(Oc1cc4cc[nH]c(=O)c4cc1Cl)(C3)C2 (single isomer, unassigned) [Example 5, 6-(4-Amino-4-propyl-adamantan-1-yloxy)-7-chloro-2H-isoquinolin-1-one]
100 to 1000 | – | CCCC1(N)C2CC3CC1CC(Oc1cc4cc[nH]c(=O)c4cc1Cl)(C3)C2 (single isomer, unassigned) [Example 6, 6-(4-Amino-4-propyl-adamantan-1-yloxy)-7-chloro-2H-isoquinolin-1-one]
10 to 100 | – | CC1(N)C2CC3CC1CC(Oc1cc4cc[nH]c(=O)c4cc1Cl)(C3)C2 (single isomer, unassigned) [Example 8, 6-(4-Amino-4-methyl-adamantan-1-yloxy)-7-chloro-2H-isoquinolin-1-one]
100 to 1000 | – | NC1(c2ccccc2)C2CC3CC1CC(Oc1cc4cc[nH]c(=O)c4cc1Cl)(C3)C2 (single isomer, unassigned) [Example 9, 6-(4-Amino-4-phenyl-adamantan-1-yloxy)-7-chloro-2H-isoquinolin-1-one]
10 to 100 | – | NC1(C2CC2)C2CC3CC1CC(Oc1cc4cc[nH]c(=O)c4cc1Cl)(C3)C2 (single isomer, unassigned) [Example 11, 6-(4-Amino-4-cyclopropyl-adamantan-1-yloxy)-7-chloro-2H-isoquinolin-1-one]
100 to 1000 | – | O=c1[nH]ccc2cc(OC34CC5CC(C3)C(NCc3ccccc3)C(C5)C4)c(Cl)cc12 (single isomer, unassigned) [Example 12, 6-(4-Benzylamino-adamantan-1-yloxy)-7-chloro-2H-isoquinolin-1-one]
≤ 10 | – | N[C@]12CC3CC(C1)[C@H](Oc1cc4cc[nH]c(=O)c4cc1Cl)C(C3)C2 (single isomer, unassigned) [Example 14, Cis-6-(5-Amino-adamantan-2-yloxy)-7-chloro-2H-isoquinolin-1-one]
≤ 10 | – | N[C@]12CC3CC(C1)[C@@H](Oc1cc4cc[nH]c(=O)c4cc1Cl)C(C3)C2 (single isomer, unassigned) [Example 15, Trans-6-(5-Amino-adamantan-2-yloxy)-7-chloro-2H-isoquinolin-1-one]
– | +++++++ (8.0≦pIC50) | Cc1cc2c(=O)[nH]ccc2cc1OC1C2CC3CC1CC(N)(C3)C2 (single isomer, unassigned) [Example 16, 6-(5-Amino-adamantan-2-yloxy)-7-methyl-2H-isoquinolin-1-one]
100 to 1000 | – | NC12C[C@H]3C[C@@H](C1)CC(Oc1cc4cc[nH]c(=O)c4cc1Cl)(C3)C2 [Example 13, 6-(3-Amino-adamantan-1-yloxy)-7-chloro-2H-isoquinolin-1-one]
10 to 100 | – | N[C@H]1C[C@H]2COC[C@@H](C1)[C@H]2Oc1cc2cc[nH]c(=O)c2cc1Cl [Example 17, 6-{[(7-Endo,9-anti)-7-amino-3-oxabicyclo[3.3.1]non-9-yl]oxy}-7-chloroisoquinolin-1(2H)-one]
10 to 100 | – | N[C@H]1C[C@H]2COC[C@@H](C1)[C@@H]2Oc1cc2cc[nH]c(=O)c2cc1Cl [Example 18, 6-{[(7-endo,9-syn)-7-amino-3-oxabicyclo[3.3.1]non-9-yl]oxy}-7-chloroisoquinolin-1(2H)-one]
10 to 100 | – | N[C@H]1C[C@H]2CSC[C@@H](C1)[C@H]2Oc1cc2cc[nH]c(=O)c2cc1Cl [Example 19, 6-{[(7-Endo,9-anti)-7-amino-3-thiabicyclo[3.3.1]non-9-yl]oxy}-7-chloroisoquinolin-1(2H)-one]
10 to 100 | – | N[C@H]1C[C@H]2CSC[C@@H](C1)[C@@H]2Oc1cc2cc[nH]c(=O)c2cc1Cl [Example 20, 6-{[(7-endo,9-syn)-7-amino-3-thiabicyclo[3.3.1]non-9-yl]oxy}-7-chloroisoquinolin-1(2H)-one]
10 to 100 | – | O=c1[nH]ccc2cc(O[C@H]3CC[C@@]4(CCCN4)CC3)c(Cl)cc12 [Example 22, 6-(1-Aza-spiro[4.5]dec-8-yloxy)-7-chloro-2H-isoquinolin-1-one]
